Laboratory results published in ChEMBL document CHEMBL3259577, “Antagonists of the kappa opioid receptor” (Bioorg Med Chem Lett, 2014).
Peptide text beside a SMILES is read from it.

Assays:
Mu-type opioid receptor [1] = target: T1, Mu-type opioid receptor (Homo sapiens, UniProt P35372); assay: Inhibition of mu opioid receptor (unknown origin) using DAMGO by high content imaging beta-arrestin translocation assay
[2] = target: T2, Delta-type opioid receptor (Homo sapiens, UniProt P41143); assay: Inhibition of delta opioid receptor (unknown origin) using SNC-80 by high content imaging beta-arrestin translocation assay
T2 sequence (P41143 whole entry): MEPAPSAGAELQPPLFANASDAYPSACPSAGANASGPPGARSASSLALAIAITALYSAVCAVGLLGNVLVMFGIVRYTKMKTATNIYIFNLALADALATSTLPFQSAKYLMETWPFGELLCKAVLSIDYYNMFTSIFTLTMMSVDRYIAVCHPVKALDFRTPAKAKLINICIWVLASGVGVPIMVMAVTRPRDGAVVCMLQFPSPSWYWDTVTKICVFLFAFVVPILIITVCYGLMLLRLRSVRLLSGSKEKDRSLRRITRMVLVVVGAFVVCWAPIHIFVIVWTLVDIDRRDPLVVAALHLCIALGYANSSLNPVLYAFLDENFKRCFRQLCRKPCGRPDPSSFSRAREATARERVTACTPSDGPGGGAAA

Histamine H1 receptor = Histamine H1 receptor (Homo sapiens, UniProt P35367); assay: Binding affinity to histamine H1 receptor (unknown origin)
Histamine H1 receptor, sequence (P35367 whole entry): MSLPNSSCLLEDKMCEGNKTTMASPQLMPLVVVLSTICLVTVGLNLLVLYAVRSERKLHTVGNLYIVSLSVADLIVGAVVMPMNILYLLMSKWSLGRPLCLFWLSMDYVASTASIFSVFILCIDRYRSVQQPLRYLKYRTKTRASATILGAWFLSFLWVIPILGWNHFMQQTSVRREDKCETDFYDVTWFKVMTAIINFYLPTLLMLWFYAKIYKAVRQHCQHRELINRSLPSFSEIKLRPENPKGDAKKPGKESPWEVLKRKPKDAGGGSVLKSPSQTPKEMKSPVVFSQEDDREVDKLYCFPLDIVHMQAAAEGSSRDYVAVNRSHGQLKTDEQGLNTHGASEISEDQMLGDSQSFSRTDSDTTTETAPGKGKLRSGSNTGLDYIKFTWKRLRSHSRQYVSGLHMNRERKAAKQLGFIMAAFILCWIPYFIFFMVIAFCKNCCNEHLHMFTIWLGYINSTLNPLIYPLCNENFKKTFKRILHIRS

[3] = target: Sodium-dependent noradrenaline transporter (Homo sapiens, UniProt P23975); assay: Binding affinity to NET (unknown origin)
Sodium-dependent noradrenaline transporter, sequence (P23975 whole entry): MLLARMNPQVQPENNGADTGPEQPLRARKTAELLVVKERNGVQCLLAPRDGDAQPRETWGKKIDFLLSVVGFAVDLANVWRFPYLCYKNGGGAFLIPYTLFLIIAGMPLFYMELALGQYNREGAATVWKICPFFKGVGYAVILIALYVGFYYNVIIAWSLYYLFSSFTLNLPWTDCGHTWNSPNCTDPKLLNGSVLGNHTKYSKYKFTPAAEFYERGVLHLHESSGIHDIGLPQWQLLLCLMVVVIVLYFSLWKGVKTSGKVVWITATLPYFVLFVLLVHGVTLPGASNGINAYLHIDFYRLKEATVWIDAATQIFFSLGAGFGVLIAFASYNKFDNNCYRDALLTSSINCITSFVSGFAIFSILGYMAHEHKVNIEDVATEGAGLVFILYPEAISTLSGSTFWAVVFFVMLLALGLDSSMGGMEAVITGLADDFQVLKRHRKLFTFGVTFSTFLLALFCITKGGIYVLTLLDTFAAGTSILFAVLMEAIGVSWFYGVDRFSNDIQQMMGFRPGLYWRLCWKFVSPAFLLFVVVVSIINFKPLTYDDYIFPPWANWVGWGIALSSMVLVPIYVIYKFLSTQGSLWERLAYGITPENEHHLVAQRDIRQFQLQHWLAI

D(3) dopamine receptor = D(3) dopamine receptor (Homo sapiens, UniProt P35462); assay: Binding affinity to dopamine D3 receptor (unknown origin)
D(3) dopamine receptor, sequence (P35462 whole entry): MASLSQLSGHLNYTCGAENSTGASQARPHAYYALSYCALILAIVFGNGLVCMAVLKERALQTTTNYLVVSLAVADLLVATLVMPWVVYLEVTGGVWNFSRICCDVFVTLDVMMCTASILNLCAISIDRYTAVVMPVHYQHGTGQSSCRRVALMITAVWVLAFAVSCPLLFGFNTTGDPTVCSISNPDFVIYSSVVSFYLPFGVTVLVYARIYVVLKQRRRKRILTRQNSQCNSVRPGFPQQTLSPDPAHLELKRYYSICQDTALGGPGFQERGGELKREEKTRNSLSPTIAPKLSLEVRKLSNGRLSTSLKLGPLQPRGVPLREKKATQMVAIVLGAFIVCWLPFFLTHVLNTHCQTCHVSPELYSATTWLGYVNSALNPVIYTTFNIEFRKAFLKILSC

[4] = Drug metabolism in mouse liver microsomes assessed as compound remaining after 1 hr; type: ADME; settings: read-out: Drug metabolism
[5] = target: Mu-type opioid receptor (Cavia porcellus) (UniProt P97266); assay: Antagonist activity at mu opioid receptor in guinea pig caudate assessed as inhibition of DAMGO-stimulated [35S]-GTP[gammaS] binding; type: functional
Mu-type opioid receptor (Cavia porcellus), sequence (P97266 whole entry): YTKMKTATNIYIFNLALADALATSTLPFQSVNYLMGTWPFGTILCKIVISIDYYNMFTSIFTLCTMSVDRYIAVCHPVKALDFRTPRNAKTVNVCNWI

Cavia porcellus = organism: Cavia porcellus; assay: Antagonist activity at delta opioid receptor in guinea pig caudate assessed as inhibition of SNC-80-stimulated [35S]-GTP[gammaS] binding
[6] = target: Kappa-type opioid receptor (Cavia porcellus) (UniProt P41144)
Kappa-type opioid receptor (Cavia porcellus), sequence (P41144 whole entry): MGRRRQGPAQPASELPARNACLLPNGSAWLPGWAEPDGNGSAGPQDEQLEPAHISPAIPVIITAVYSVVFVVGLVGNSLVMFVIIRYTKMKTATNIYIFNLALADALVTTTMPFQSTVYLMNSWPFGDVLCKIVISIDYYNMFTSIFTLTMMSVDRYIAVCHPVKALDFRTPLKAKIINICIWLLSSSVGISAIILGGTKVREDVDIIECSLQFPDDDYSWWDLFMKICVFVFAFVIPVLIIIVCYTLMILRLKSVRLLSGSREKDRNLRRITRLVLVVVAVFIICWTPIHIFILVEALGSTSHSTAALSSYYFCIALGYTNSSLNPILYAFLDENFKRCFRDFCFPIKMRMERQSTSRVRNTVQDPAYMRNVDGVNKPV

[7] = target: T3, Kappa-type opioid receptor (Homo sapiens, UniProt P41145); assay: Inhibition of kappa opioid receptor (unknown origin) using dynorphin A by DiscoveryRx b-arrestin PathHunter assay
T3 sequence (P41145 whole entry): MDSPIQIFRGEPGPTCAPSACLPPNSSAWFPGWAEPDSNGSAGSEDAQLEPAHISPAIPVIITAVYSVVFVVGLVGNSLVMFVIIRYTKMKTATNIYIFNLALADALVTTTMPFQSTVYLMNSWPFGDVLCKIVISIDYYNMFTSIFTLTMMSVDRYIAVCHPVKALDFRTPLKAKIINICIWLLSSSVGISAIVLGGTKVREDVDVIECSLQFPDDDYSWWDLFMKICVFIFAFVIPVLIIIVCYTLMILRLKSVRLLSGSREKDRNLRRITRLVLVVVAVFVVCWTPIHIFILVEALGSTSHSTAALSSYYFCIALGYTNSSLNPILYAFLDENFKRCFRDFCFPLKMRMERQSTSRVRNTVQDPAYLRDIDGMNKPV

[8] = target: T3, Kappa-type opioid receptor; assay: Inhibition of kappa opioid receptor (unknown origin) using dynorphin A by high content imaging beta-arrestin translocation assay
[9] = target: T3, Kappa-type opioid receptor; assay: Displacement of [3H]diprenorphine from kappa opioid receptor (unknown origin) expressed in CHO cells membranes; type: cell membranes
Mu-type opioid receptor [10] = target: T1, Mu-type opioid receptor; assay: Displacement of [3H]diprenorphine from mu opioid receptor (unknown origin) expressed in CHO cells membranes; type: cell membranes
[11] = target: T2, Delta-type opioid receptor; assay: Displacement of [3H]diprenorphine from delta opioid receptor (unknown origin) expressed in CHO cells membranes; type: cell membranes
[12] = target: Kappa-type opioid receptor (Cavia porcellus, UniProt P41144); assay: Antagonist activity at kappa opioid receptor in guinea pig ileum assessed as inhibition of U50488-stimulated [35S]-GTP[gammaS] binding; type: functional, tissue-based; settings: read-out: pA2 (converted)
Kappa-type opioid receptor (Cavia porcellus, UniProt P41144), sequence (P41144 whole entry): as the sequence (P41144 whole entry) above

Mu-type opioid receptor [13] = target: Mu-type opioid receptor (Cavia porcellus, UniProt P97266); assay: Antagonist activity at mu opioid receptor in guinea pig ileum assessed as inhibition of DAMGO-stimulated [35S]-GTP[gammaS] binding; type: functional, tissue-based; settings: read-out: pA2 (converted)
Mu-type opioid receptor (Cavia porcellus, UniProt P97266), sequence (P97266 whole entry): as the sequence (P97266 whole entry) above

Mus musculus = organism: Mus musculus; assay: Antinociceptive activity in mouse assessed as reversal of U50488-induced withdrawl latencies; type: functional
Mu-type opioid receptor [14] = target: T1, Mu-type opioid receptor; assay: Agonist activity at human cloned mu opioid receptor expressed in CHO cells assessed as stimulation of [35S]-GTP[gammaS] binding; type: cell-based
[15] = target: Muscarinic acetylcholine receptor M2 (Homo sapiens, UniProt P08172); assay: Binding affinity to muscarinic M2 receptor (unknown origin)
Muscarinic acetylcholine receptor M2, sequence (P08172 whole entry): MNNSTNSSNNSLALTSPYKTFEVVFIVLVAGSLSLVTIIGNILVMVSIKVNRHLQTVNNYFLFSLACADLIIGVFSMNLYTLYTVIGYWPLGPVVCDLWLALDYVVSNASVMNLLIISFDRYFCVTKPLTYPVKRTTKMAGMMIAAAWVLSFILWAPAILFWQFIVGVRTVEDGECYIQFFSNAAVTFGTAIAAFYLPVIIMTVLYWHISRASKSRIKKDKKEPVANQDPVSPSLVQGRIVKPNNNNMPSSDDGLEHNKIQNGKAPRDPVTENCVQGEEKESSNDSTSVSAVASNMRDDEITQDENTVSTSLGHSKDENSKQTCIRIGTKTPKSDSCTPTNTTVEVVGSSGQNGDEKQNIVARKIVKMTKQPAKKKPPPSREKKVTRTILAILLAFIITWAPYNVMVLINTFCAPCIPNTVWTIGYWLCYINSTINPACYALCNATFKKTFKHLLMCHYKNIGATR

[16] = target: Muscarinic acetylcholine receptor M3 (Homo sapiens, UniProt P20309); assay: Binding affinity to muscarinic M3 receptor (unknown origin)
Muscarinic acetylcholine receptor M3, sequence (P20309 whole entry): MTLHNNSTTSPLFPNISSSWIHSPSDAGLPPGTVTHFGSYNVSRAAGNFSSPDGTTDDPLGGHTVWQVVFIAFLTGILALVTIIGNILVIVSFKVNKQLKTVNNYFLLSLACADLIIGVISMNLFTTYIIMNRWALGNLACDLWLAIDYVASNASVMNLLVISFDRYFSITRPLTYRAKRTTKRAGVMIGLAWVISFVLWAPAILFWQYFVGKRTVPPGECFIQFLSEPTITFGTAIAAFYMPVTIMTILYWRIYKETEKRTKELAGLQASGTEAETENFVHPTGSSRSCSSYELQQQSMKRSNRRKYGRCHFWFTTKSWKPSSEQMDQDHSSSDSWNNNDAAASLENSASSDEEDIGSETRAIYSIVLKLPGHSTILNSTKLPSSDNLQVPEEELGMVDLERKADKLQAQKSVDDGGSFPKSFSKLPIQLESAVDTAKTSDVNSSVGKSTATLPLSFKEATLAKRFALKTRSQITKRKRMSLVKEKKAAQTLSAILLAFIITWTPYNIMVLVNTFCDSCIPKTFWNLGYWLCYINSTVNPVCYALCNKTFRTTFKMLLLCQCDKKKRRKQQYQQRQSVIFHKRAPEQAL

[17] = target: Muscarinic acetylcholine receptor M4 (Homo sapiens, UniProt P08173); assay: Binding affinity to muscarinic M4 receptor (unknown origin)
[18] = target: Sigma non-opioid intracellular receptor 1 (Homo sapiens, UniProt Q99720); assay: Binding affinity to sigma-1 receptor (unknown origin)
Sigma non-opioid intracellular receptor 1, sequence (Q99720 whole entry): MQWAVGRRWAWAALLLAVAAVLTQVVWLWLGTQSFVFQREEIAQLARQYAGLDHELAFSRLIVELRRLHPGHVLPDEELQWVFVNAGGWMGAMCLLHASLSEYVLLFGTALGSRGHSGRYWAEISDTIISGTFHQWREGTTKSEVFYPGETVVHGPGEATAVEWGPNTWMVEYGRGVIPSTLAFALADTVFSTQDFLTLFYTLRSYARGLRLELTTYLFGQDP

T1 sequence (P35372 whole entry): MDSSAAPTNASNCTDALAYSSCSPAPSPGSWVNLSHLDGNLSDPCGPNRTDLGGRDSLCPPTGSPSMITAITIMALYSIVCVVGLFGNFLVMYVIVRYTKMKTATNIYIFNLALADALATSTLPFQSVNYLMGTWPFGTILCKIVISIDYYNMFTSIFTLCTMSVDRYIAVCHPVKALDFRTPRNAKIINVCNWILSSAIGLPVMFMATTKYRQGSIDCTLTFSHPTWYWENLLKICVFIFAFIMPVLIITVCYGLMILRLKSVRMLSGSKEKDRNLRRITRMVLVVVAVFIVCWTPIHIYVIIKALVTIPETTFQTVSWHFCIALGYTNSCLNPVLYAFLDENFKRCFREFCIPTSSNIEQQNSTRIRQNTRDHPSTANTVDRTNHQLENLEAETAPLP

**Q.** Which IC50 (Mu-type opioid receptor [1]) does the source give for `COc1ccc(N2CCN(CCCNC(=O)Cn3c(=O)c4cccn4c4c(C)ccnc43)CC2)cc1` here?
**A.** > 32000 nM

**Q.** And the IC50 [2]?
**A.** > 32000 nM

**Q.** And the Ki (Histamine H1 receptor)?
**A.** < 1000 nM

**Q.** And the Ki [3]?
**A.** < 1000 nM

**Q.** What about the Ki (D(3) dopamine receptor) of the same molecule?
**A.** < 1000 nM

**Q.** And the remaining at 1 h [4]?
**A.** 7.34%

**Q.** With `CC(C)CC(=O)N1Cc2cc(O)ccc2C[C@@H]1C(=O)N[C@H](CN1CC[C@@](C)(c2cccc(O)c2)[C@@H](C)C1)C(C)C` as the molecule, how does the Ke [5] read?
**A.** 29 nM

**Q.** What about the Ke (Cavia porcellus) of the same molecule?
**A.** 628 nM

**Q.** What about the Ke [6] of the same molecule?
**A.** 0.16 nM

**Q.** For `CC(=O)N1Cc2cc(O)ccc2C[C@@H]1C(=O)N[C@H](CN1CC[C@@](C)(c2cccc(O)c2)[C@@H](C)C1)C(C)C`, which Ke (Cavia porcellus) is on record?
**A.** > 300 nM

**Q.** Which IC50 [2] does the source give for `CCN(CCNC(=O)c1ccc(CNS(=O)(=O)c2ccc(C)cc2)cc1)Cc1ccccc1` here?
**A.** > 32000 nM

**Q.** What does the source list for `Cc1ccc(S(=O)(=O)NCc2ccc(C(=O)NCCCN(Cc3ccccc3)C(C)C)cc2)cc1`?
**A.** IC50 (Mu-type opioid receptor [1]): > 32000 nM; IC50 [7]: > 20000 nM; IC50 [8]: > 32000 nM; IC50 [2]: > 32000 nM

**Q.** With `CC(C)[C@@H](CN1CC[C@@](C)(c2cccc(O)c2)[C@@H](C)C1)NC(=O)[C@@H]1Cc2ccc(O)cc2CN1` as the molecule, how does the Ke (Cavia porcellus) read?
**A.** 327 nM

**Q.** With `C[C@H]1CN(CCOC(=O)[C@H]2Cc3ccc(O)cc3CN2)CC[C@@]1(C)c1cccc(O)c1` as the molecule, how does the Ki [9] read?
**A.** 159 nM

**Q.** What about the Ki (Mu-type opioid receptor [10]) of the same molecule?
**A.** 186 nM

**Q.** What about the Ki [11] of the same molecule?
**A.** 475 nM

**Q.** What about the Kb [12] of the same molecule?
**A.** 135 nM

**Q.** And the Kb (Mu-type opioid receptor [13])?
**A.** 97.7 nM

**Q.** What does the source list for `COc1ccc(N2CCN(CCCNC(=O)Cn3c(=O)c4cccn4c4c(C)ccnc43)CC2)c(OC)c1`?
**A.** IC50 [7]: 190 nM; IC50 [8]: 4 nM; IC50 [2]: > 32000 nM

**Q.** With `C[C@@H]1NC(=O)[C@@H]2CCCN2C(=O)[C@H](Cc2ccccc2)NC(=O)[C@H](Cc2c[nH]c3ccccc23)NC1=O` (cyclo(AWFP)) as the molecule, how does the Time (Mus musculus) read?
**A.** <18 h

**Q.** For `CO[C@H]1Cc2ccc(O)cc2C(C)(C)[C@@H]1N`, which Activity (Mu-type opioid receptor [14]) is on record?
**A.** 31.6%

**Q.** And the EC50 (Mu-type opioid receptor [14])?
**A.** 234 nM

**Q.** Which IC50 (Mu-type opioid receptor [1]) does the source give for `Cc1ccnc2c1n1cccc1c(=O)n2CC(=O)NCCCN1CCN(c2ccc(Cl)cc2)CC1` here?
**A.** > 32000 nM

**Q.** What about the IC50 [7] of the same molecule?
**A.** 690 nM

**Q.** And the IC50 [2]?
**A.** > 32000 nM

**Q.** Which results are given for `Cc1ccc(S(=O)(=O)NCc2ccc(C(=O)NCCN(Cc3ccc(Br)cc3)C(C)C)cc2)cc1`?
**A.** IC50 (Mu-type opioid receptor [1]): > 32000 nM; IC50 [2]: > 32000 nM

**Q.** Which IC50 [7] does the source give for `Cc1ccc(S(=O)(=O)NCc2ccc(C(=O)NCCN(Cc3ccccc3)C(C)(C)C)cc2)cc1` here?
**A.** 60 nM

**Q.** And the IC50 [8]?
**A.** 30 nM

**Q.** What about the IC50 [2] of the same molecule?
**A.** > 32000 nM

**Q.** And the Ki [15]?
**A.** < 1000 nM

**Q.** What about the Ki [16] of the same molecule?
**A.** < 1000 nM

**Q.** And the Ki [17]?
**A.** < 1000 nM

**Q.** And the Ki [18]?
**A.** < 1000 nM

**Q.** For `CC(C)[C@@H](CN1CC[C@@](C)(c2cccc(O)c2)[C@@H](C)C1)NC(=O)[C@H](N)Cc1ccc(O)cc1`, which Ke [5] is on record?
**A.** 12 nM

**Q.** And the Ke (Cavia porcellus)?
**A.** 334 nM

**Q.** And the Ke [6]?
**A.** 44.6 nM

**Q.** What does the source list for `C[C@H]1CN(CCCOC(=O)[C@H]2Cc3ccc(O)cc3CN2)CC[C@@]1(C)c1cccc(O)c1`?
**A.** Ki [9]: 25.2 nM; Ki (Mu-type opioid receptor [10]): 6.55 nM; Ki [11]: 221 nM; Kb [12]: 174 nM; Kb (Mu-type opioid receptor [13]): 93.3 nM

**Q.** With `CC(C)[C@@H](CN1CC[C@@](C)(c2cccc(O)c2)[C@@H](C)C1)NC(=O)[C@@H](N)Cc1ccc(O)cc1` as the molecule, how does the Ke (Cavia porcellus) read?
**A.** 452 nM
